Assay results as given in patent US11098081B2, “Epitope tag and method for detection and/or purification of tagged polypeptides” (ChromoTek GmbH, priority 2015, dated 2021).
Blank lines part the entries; values can stand above or below the substance they belong to. Ends that are not written are not given here.

Assays:
[1] = tested on: BC2-Nb; assay: Biolayer interferometry of immobilised biotinylated BC2T peptides with BC2-Nb; type: binding, Vicugna pacos; conditions: for kon (M^−1s^−1): association rate constant; for Kd: biotinylated peptide on Streptavidin biosensor, BC2-Nb 5-50 nM, 1:1 binding model; for koff (s^−1): dissociation rate constant
Sequence of BC2-Nb (as listed by the source): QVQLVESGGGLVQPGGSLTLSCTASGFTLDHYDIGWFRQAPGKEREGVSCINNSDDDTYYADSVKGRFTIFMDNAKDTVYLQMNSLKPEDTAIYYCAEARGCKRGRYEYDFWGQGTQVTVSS
Protocol: Biolayer interferometry (BLI)-based affinity measurements were used to assess two improved variations of the original BC2T sequence (a: […], pTag1 SEQ ID NO:33, b. […], pTag2 SEQ ID NO:34) in comparison with the original BC2T sequence (c: BC2T SEQ ID NO:4) BC2T and improved variations thereof were synthesized as peptides with an N-terminal biotin attached through an ethylene glycol linker and immobilised on Streptavidin biosensors. Binding kinetics were analysed by incubating immobilised peptides with 4-5 concentrations of BC2-Nb (5-50 nM) and evaluated using a 1:1 binding model.
Listed are the dissociation constant (KD), the association […] and dissociation (koff) rate constants and markers of the quality of fit of a 1:1 binding model (χ^2, R^2). The constants reported for original BC2T differ from those listed in Table 1 because kinetics were analysed using a different method.
The affinity measurements of BC2-Nb to BC2T and improved variations pTag1 and pTag2 were performed using biolayer interferometry using a BLItz system instrument (fortéBIO). Biotinylated peptide of BC2T and its variations were immobilised on Streptavidin biosensors (fortéBIO). The loaded sensor was sequentially dipped into BLItz buffer (phosphate buffered saline, 0.1% (m/v) BSA, 0.02% (v/v) Tween20) for 120 s to determine base line signal, in a solution of BC2-Nb in BLItz buffer (concentration of 5-50 nM) for 120 s to determine association and in BLItz buffer for 600 s to determine dissociation. The shaking rate was 1200 rpm. As a reference, each peptide was also incubated with BLItz buffer only according to the protocol above. In a control experiment, Streptavidin biosensors were incubated with BC2-Nb without prior peptide immobilisation. The sensor was regenerated by sequential dips into 10 mM glycine pH 2.0 and BLItz buffer (repeated three times). Raw data were analysed using the software BLItz Pro (fortéBio) and a 1:1 binding model.

[2] = tested on: BC2 nanotrap; assay: Immunoprecipitation of BC2-tagged proteins from HEK293T cell lysates with the BC2 nanotrap; type: binding; conditions: soluble protein fraction of HEK293T cells, immunoblot
Sequence of BC2 nanotrap (as listed by the source): as above
Protocol: (d) The BC2 nanotrap binds BC2-tagged proteins from human cell lysates irrespectively whether the BC2 tag is located at the N- or the C-terminus. For immunoprecipitation of BC2-tagged proteins soluble protein fractions of HEK293T cells expressing BC2TeGFP, eGFPBC2T or solely eGFP were incubated with the BC2 nanotrap as described in (a). Input (I), non-bound (NB) and bound fractions (B) were separated by SDS-PAGE and visualized either by Coomassie Blue staining (top) or immunoblot analysis (bottom).
(a) For immunoprecipitation soluble protein fractions of HEK293T cells either expressing eGFP-PCNA (control) or BC2-tagged eGFP-PCNA (eGFP-PCNABC2T) (left panel) or mCherry-Vimentin (mCherry-VIM, control) or BC2-lagged mCherry-VIM (mCherry-VIMBC2T) were incubated with the BC2 nanotrap. Input (I), non-bound (NB) and bound fractions (B) were separated by SDS-PAGE and visualized either by immunoblot analysis using anti-PCNA or anti-Vimentin antibodies (upper panel). As loading control, blots were probed with an anti-GAPDH antibody (lower panel).
The BC2-capture system was further analyzed for one-step purification of recombinant proteins derived from human cells Specifically, it was investigated whether the terminal position of the BC2-tag has an impact on binding. […]
Next, it was tested whether the BC2 nanotrap can precipitate BC2-tagged cellular components of the intermediate filaments or the nuclear replication machinery BC2T was genetically fused either to mCherry-vimentin (mCherry-VIMBC2T) or eGFP-PCNA (eGFP-PCNABC2T) and both constructs were expressed in HEK293T cells. […] Soluble protein extracts were incubated with the BC2 nanotrap and whole lysate (input), non-bound and bound fractions were analyzed by immunoblotting using anti-vimentin or anti-PCNA antibodies. […]
HEK293T cells transiently expressing eGFP, eGFPBC2T or BC2TeGFP, eGFP-PCNA, eGFP-PCNABC2T, mCherry-Vimentin, mCherry-VimentinBC2T were washed and harvested in phosphate buffered saline (PBS), snap-frozen in liquid nitrogen and stored at −20° C. Cell pellets were homogenized in 200 μl lysis buffer (10 mM Tris/Cl pH 7.3, 150 mM NaCl, 0.5% NP40, 1 μg DNaseI, 2 mM MgCl2, 2 mM PMSF, 1× protease inhibitor mix M (Serva) by repealed pipetting for 40 min on ice. After a centrifugation step (10 min at 18.000×g) the protein concentration of each lysate was determined using a Pierce BCA Protein Assay Kit (Thermo Fisher Scientific) according to manufacturer's protocol and the protein solutions were adjusted with dilution buffer (10 mM Tris/Cl pH 7.5, 150 mM NaCl, 2 mM PMSF) to a concentration of 1 mg/ml, 2% of the supernatant were added to SDS-containing sample buffer (referred to as input). […] Samples were analyzed by SDS-PAGE followed by immunoblotting. […]

[3] = tested on: BC2 nanotrap; assay: Immunoprecipitation of BC2-tagged GFP from E. coli lysate with the BC2 nanotrap; type: binding; conditions: soluble protein fraction of E. coli, SDS-PAGE, Coomassie and/or anti-GFP immunoblot
[4] = tested on: BC2 nanotrap; assay: Elution of bound BC2-tagged protein from the BC2 nanotrap; type: binding; conditions: for GFPBC2T detected in elution fraction: competitive elution
Protocol: […] Aliquots of released (R) and bound (B) fractions were analyzed by immunoblotting with an anti-GFP antibody.
For the elution experiments 40 μl of BC2 nanotrap (slurry) were incubated with 400 μl soluble protein extract (c=1 mg/ml) derived from E. coli cells expressing GFPBC2T for 1 h at 4° C. on an end-over-end rotor. After a centrifugation step (2500×g, 4° C., 2 min) the supernatant was discarded and the beads were washed four times in ice-cold PBS including a cup change after the second washing step. Subsequently, beads were pelleted and incubated with 80 μl of the indicated elution conditions for 15 min at RT. […] 0.1 mM or 1 mM BC2-peptide dissolved in 0.2 M Tris/Cl pH 7.4, 150 mM NaCl; acidic elution: 0.2 M Glycine-HCl adjusted to pH 1. pH 2 or pH 3; alkaline elution: 0 mM. 1 mM, 10 mM or 100 mM NaOH; elution with sodium thiocyanate. 0 M, 1 M, 2 M, or 3 M NaSCN. The eluates were collected and boiled in 1×SDS containing sample buffer and the remaining beads were washed twice in PBS before boiling in 40 μl 2× sample buffer. 10% of each elution (release, R) and bead bound (bound, B) fraction were analyzed by SDS-PAGE and immunoblotting using an anti-GFP antibody.

Kd [1]: 1.9 nM
Substance: ADRVRAVSHWSS [pTag2]
kon (M^−1s^−1) [1]: 1.1 ± 0.1 × 10^5 M^−1s^−1
koff (s^−1) [1]: 2.0 ± 0.1 × 10^−4 s^−1

Substance: BC2TeGFP: modified GFP comprising the BC2-tag on the N-terminus, expressed in HEK293T cells (PDRKAAVSHWQQ-eGFP; also: BC2 tag fused to the N-terminus of eGFP)
precipitation by the BC2 nanotrap from HEK293T lysate [2]: efficiently precipitated

Substance: GFPBC2T-8: GFP C-terminally fused to BC2T-8 ({GFP}-RKAAVSHW; also: BC2T-8 tag fused to the C-terminus of GFP)
precipitation by the BC2 nanotrap from E. coli lysate [3]: in a comparable manner as GFP tagged with the original BC2T

Substance: GFPBC2T-10: GFP C-terminally fused to BC2T-10 ({GFP}-PDRKAAVSHW; also: BC2T-10 tag fused to the C-terminus of GFP)
precipitation by the BC2 nanotrap from E. coli lysate [3]: in a comparable manner as GFP tagged with the original BC2T

Substance: GFPBC2T: GFP with a C-terminal BC2 tag, expressed in E. coli
precipitation by the BC2 nanotrap from E. coli lysate [3]: quantitatively precipitates
elution with MgCl2 ([4]; MgCl2 0.5 M-4 M, data not shown): does not elute
release of bound protein ([4]; alkaline elution, pH 11 and 12): 40-80%

Substance: PDRKAAVSHW (Epitope peptide 10 aa) [BC2T-10]
precipitation by the BC2 nanotrap from E. coli lysate [3]: efficiently recognized

Substance: PDRKAAVSHWQQ [BC2T]
kon (M^−1s^−1) [1]: 1.9 ± 0.1 × 10^5 M^−1s^−1
Kd [1]: 2.6 nM
koff (s^−1) [1]: 5.0 ± 0.1 × 10^−4 s^−1
GFPBC2T detected in elution fraction ([4]; 0.1 mM BC2 peptide): ~60%
GFPBC2T detected in elution fraction ([4]; 1 mM BC2 peptide): ~80%

Kd [1]: 0.7 nM
Substance: PDRVRAVSHWSS [pTag1]
dissociation rate constant koff slower than for original BC2T [1]: 7 ×
kon (M^−1s^−1) [1]: 9.2 ± 0.5 × 10^4 M^−1s^−1
koff (s^−1) [1]: 6.8 ± 0.4 × 10^−5 s^−1

Substance: RKAAVSHW (Epitope peptide 8 aa) [BC2T-8]
precipitation by the BC2 nanotrap from E. coli lysate [3]: efficiently recognized

Substance: eGFP-PCNABC2T: BC2T genetically fused to the C-terminus of eGFP-PCNA
precipitation by the BC2 nanotrap from HEK293T lysate [2]: efficiently precipitated

Substance: eGFPBC2T: modified GFP comprising the BC2-tag on the C-terminus, expressed in HEK293T cells (eGFP-PDRKAAVSHWQQ; also: BC2 tag fused to the C-terminus of eGFP)
precipitation by the BC2 nanotrap from HEK293T lysate [2]: efficiently precipitated

Substance: mCherry-VIMBC2T: BC2T genetically fused to the C-terminus of mCherry-Vimentin
precipitation by the BC2 nanotrap from HEK293T lysate [2]: efficiently precipitated
